Some test systems named below: HL-60; PC-3; M14; UACC-257; SF-539; COLO 205; SR; HT-29; OVCAR-4; U-251; HCC 2998; OVCAR-5; HOP-62; HCT-116; CAKI-1; MOLT-4; Hs-578T; NCI-H23; SK-MEL-2; TK-10.
Experiment in all cases: DTP human tumour cell line panel, 48 h

The values that follow come from ChEMBL document CHEMBL1201862, “PubChem BioAssay data set” (2004).

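Tested at 5 concentrations; 48 h exposure; 96-well plates; endpoints linearly interpolated, else capped at highest concentration. The concentration for 50% growth inhibition is given as GI50.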 Active and inactive are the calls of the source. No stated cut-off is given here; in the data, active = GI50 up to about 1.1 µM and inactive = higher. *1 amine or outer side, *2 acyl side, *3 side chain or, on linkers, in order; H or OH if unused. Where a SMILES comes first, the peptide text is derived from it. Bridges are numbered along the chain shown (N, C = ends). Roman numbers before positions name the chains, in order. [ ]: non-standard residue; d: D form. Actinocin(1to9) = Cc1c2oc3c(C)ccc(C(=O)[*:2])c3nc-2c(C(=O)[*:1])c(N)c1=O; NMeV = CN[CH](C(=O)O)C(C)C; Sar = CNCC(=O)O

Regarding `COc1ccc(CC2NC(=O)C(NC(=O)c3c4nc5c(C(=O)NC6C(=O)NC(Cc7ccc(OC)cc7)C(=O)N7CCCC7C(=O)N(C)CC(=O)N(C)C(C(C)C)C(=O)OC6C)ccc(C)c5oc-4c(C)c(=O)c3N)C(C)OC(=O)C(C(C)C)N(C)C(=O)CN(C)C(=O)C3CCCN3C2=O)cc1` (stereo not given) (I: TY(Me)P[Sar][NMeV] / II: TY(Me)P[Sar][NMeV]; ester I:1-I:C, II:1-II:C; linker I:N-II:N via Actinocin(1to9); configuration not given here), the GI50 – broadly, the concentration giving 50% growth inhibition – in the assay on HL-60 is < 0.001 µM (active); in the assay on PC-3, < 0.001 µM (active); in the assay on M14 it was 0.00678 µM (active); in the assay on UACC-257, < 0.001 µM (active); in the assay on SF-539 it was < 0.001 µM (active); in the assay on COLO 205, < 0.001 µM (active). Besides, the GI50 with SR is < 0.001 µM (active); in the assay with HT-29, < 0.001 µM (active); in the assay on OVCAR-4, 0.0485 µM (active); with U-251 it was < 0.001 µM (active); with HCC 2998 it was 0.0012 µM (active); with OVCAR-5 it was 0.00267 µM (active). The GI50 was 0.00681 µM (active) in the assay with HOP-62; < 0.001 µM (active) in the assay with HCT-116; 0.00869 µM (active) in the assay with CAKI-1; < 0.001 µM (active) with MOLT-4; 0.022 µM (active) in the assay on Hs-578T; 0.00147 µM (active) with NCI-H23. For the same compound, the GI50 is 0.015 µM (active) with SK-MEL-2 and 0.0351 µM (active) in the assay with TK-10.

As for `CC(=O)Oc1ccc2c(c1)CC[C@@H]1C2[C@@H](O[N+](=O)[O-])C[C@@]2(C)C1CC[C@@H]2O` (stereo not given in full), the GI50 is 9.2 µM (inactive) with HL-60; 47.3 µM (inactive) in the assay with PC-3; 28.3 µM (inactive) with M14; 67.5 µM (inactive) with UACC-257; 25.6 µM (inactive) in the assay on SF-539; 50.8 µM (inactive) in the assay with COLO 205. Besides, the GI50 in the assay with SR was 16.4 µM (inactive); in the assay with HT-29 it was 30.8 µM (inactive); with OVCAR-4 it was 52.1 µM (inactive); in the assay on U-251, 27.6 µM (inactive); in the assay on HCC 2998 it was 10.6 µM (inactive); in the assay with OVCAR-5, 33 µM (inactive). In addition, the GI50 with HOP-62 was 17.1 µM (inactive); with HCT-116 it was 29.4 µM (inactive); in the assay with CAKI-1 it was 78 µM (inactive); in the assay on MOLT-4 it was 24.5 µM (inactive); with Hs-578T, 14.4 µM (inactive); in the assay with NCI-H23, 42.9 µM (inactive). For the same compound, the GI50 in the assay on SK-MEL-2 is 32.1 µM (inactive); in the assay with TK-10 it was 49.8 µM (inactive).

In the case of `N#Cc1ccc(-c2nc3c(N)nc(-c4ccccc4)nc3o2)cc1`, the GI50 in the assay on HL-60 was > 100 µM (inactive); in the assay on PC-3, > 100 µM (inactive); in the assay with M14 it was > 100 µM (inactive); with UACC-257 it was > 100 µM (inactive); with SF-539, 5.6 µM (inactive); in the assay with COLO 205 it was > 100 µM (inactive). Also, the GI50 in the assay on SR was > 100 µM (inactive); in the assay with HT-29, > 100 µM (inactive); in the assay on OVCAR-4, 17.3 µM (inactive); with U-251, 5.11 µM (inactive); in the assay on HCC 2998 it was > 100 µM (inactive); with OVCAR-5, > 100 µM (inactive). The GI50 in the assay with HOP-62 is 19.7 µM (inactive); in the assay on HCT-116, 31.8 µM (inactive); in the assay on CAKI-1, > 100 µM (inactive); in the assay with MOLT-4 it was > 100 µM (inactive); with Hs-578T it was > 100 µM (inactive); in the assay with NCI-H23, > 100 µM (inactive). For the same compound, the GI50 with SK-MEL-2 and in the assay with TK-10 was > 100 µM (inactive) in each case.
